According to ChEMBL document CHEMBL5523741, “Development of an Orally Bioavailable LCK PROTAC Degrader as a Potential Therapeutic Approach to T-Cell Acute Lymphoblastic Leukemia” (J Med Chem, 2024):
Values after ≈ are worked out from the molar mass of the structure shown. Each block holds one compound with its values, some of them ahead of it. Active and inactive are the calls of the source. The calls are words filed in the database; no cut-off is given here.

What was measured:
[1] = Metabolic stability in mouse liver microsomes assessed as half life in presence of NADPH by UPLC-MS/MS analysis; type: ADME, Microsome
[2] = Apparent permeability of compound across apical to basolateral side in human Caco-2 cells; type: ADME, cell-based
[3] = Drug concentration in CD-1 mouse plasma at 30 mg/kg, po measured after 4 hrs by UPLC-MS/MS analysis; type: ADME, organism-based
[4] = Apparent permeability of compound across basolateral to apical side in human Caco-2 cells; type: ADME, cell-based
[5] = Efflux ratio of apparent permeability across basolateral to apical over apical to basolateral in human Caco-2 cells; type: ADME, cell-based
[6] = Stability in CD-1 mouse plasma assessed as half life; type: ADME, cell-free
[7] = biological target: T1, Protein cereblon/Tyrosine-protein kinase Lck (Homo sapiens, UniProt P06239+Q96SW2); assay: PROTAC activity at HiBit-tagged LCK/CRBN in human KOPT-K1 cells assessed as induction of LCK degradation incubated for 6 hrs by Nano-Glo HiBiT assay relative to control; type: cell-based
Target sequence in this assay (P06239 2-509 limits assumed): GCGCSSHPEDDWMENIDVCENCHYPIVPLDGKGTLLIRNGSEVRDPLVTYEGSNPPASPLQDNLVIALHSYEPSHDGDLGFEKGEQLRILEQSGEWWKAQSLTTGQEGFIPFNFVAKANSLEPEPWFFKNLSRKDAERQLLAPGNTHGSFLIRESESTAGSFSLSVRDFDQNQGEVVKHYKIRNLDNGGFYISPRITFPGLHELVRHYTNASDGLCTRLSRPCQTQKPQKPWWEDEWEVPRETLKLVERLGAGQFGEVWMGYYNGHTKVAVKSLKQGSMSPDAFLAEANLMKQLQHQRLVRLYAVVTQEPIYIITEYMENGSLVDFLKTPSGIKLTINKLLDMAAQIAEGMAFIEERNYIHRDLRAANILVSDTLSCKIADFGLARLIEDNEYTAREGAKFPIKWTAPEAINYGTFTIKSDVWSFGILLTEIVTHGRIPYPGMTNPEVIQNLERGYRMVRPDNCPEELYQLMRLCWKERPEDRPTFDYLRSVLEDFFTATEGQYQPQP
Target sequence in this assay (Q96SW2 whole entry partner): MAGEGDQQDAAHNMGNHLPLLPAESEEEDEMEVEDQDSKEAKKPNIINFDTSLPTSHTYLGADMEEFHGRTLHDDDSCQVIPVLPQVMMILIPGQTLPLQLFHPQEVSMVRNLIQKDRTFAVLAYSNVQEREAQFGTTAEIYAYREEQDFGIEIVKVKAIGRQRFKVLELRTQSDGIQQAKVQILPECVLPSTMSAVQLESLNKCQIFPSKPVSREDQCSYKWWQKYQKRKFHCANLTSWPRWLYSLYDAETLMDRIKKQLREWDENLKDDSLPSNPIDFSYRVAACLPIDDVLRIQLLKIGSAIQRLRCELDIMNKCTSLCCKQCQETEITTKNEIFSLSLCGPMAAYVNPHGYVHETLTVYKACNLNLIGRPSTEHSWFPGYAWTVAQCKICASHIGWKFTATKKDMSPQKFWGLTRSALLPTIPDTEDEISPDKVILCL

[8] = Aqueous solubility of the compound incubated for 18 hrs by UPLC-SQDMS; type: physicochemical; conditions: buffer
[9] = test system: KOPTK1; assay: Antiproliferative activity against human KOPT-K1 cells assessed as inhibition of cell growth at 100 nM measured for 18 hrs by celltiter glo assay; type: functional, cell-based
[10] = Clearance in CD-1 mouse at 30 mg/kg, po measured up to 24 hrs; type: ADME, organism-based; conditions: in vivo
[11] = test system: KOPTK1; assay: Downregulation of CK1alpha in human KOPT-K1 cells measured for 6 hrs by tandem mass tag proteomic assay; type: functional, cell-based
[12] = test system: KOPTK1; assay: Antiproliferative activity against human KOPT-K1 cells assessed as inhibition of cell growth at 100 nM measured for 280 hrs by celltiter glo assay; type: functional, cell-based
[13] = biological target: T1, Protein cereblon/Tyrosine-protein kinase Lck; assay: PROTAC activity at HiBit-tagged LCK/CRBN in human KOPT-K1 cells assessed as induction of LCK degradation at 0.1 to 1000 nM incubated for 6 hrs by Western blot analysis relative to control; type: cell-based; conditions: dose 0.1-1000 nM
Target sequence in this assay (P06239 2-509 limits assumed): as the sequence (P06239 2-509 limits assumed) above
Target sequence in this assay (Q96SW2 whole entry partner): as the sequence (Q96SW2 whole entry partner) above

[14] = biological target: T1, Protein cereblon/Tyrosine-protein kinase Lck; assay: PROTAC activity at HiBit-tagged LCK/CRBN in human KOPT-K1 cells assessed as induction of LCK degradation incubated for 6 hrs by Western blot analysis; type: cell-based
Target sequence in this assay (P06239 whole entry): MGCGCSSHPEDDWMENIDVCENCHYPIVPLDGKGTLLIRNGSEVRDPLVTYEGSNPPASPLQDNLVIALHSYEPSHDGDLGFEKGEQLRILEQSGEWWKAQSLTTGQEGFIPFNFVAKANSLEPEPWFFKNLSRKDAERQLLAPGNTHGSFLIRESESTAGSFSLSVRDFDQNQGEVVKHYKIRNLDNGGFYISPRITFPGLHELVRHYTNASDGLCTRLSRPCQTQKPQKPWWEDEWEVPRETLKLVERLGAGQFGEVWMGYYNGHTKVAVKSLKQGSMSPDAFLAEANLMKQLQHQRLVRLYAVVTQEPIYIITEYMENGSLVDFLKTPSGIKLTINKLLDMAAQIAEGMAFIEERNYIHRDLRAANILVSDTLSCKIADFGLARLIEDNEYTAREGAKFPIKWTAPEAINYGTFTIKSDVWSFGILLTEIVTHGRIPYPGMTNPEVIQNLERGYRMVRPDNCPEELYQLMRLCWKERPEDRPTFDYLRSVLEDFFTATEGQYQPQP
Target sequence in this assay (Q96SW2 whole entry): as the sequence (Q96SW2 whole entry partner) above

[15] = Half life in CD-1 mouse at 30 mg/kg, po measured up to 24 hrs; type: ADME, organism-based; conditions: in vivo
[16] = AUClast in CD-1 mouse at 3 mg/kg, iv measured up to 24 hrs; type: ADME, organism-based; conditions: in vivo
[17] = test system: KOPTK1; assay: Downregulation of IKZF3 in human KOPT-K1 cells measured for 6 hrs by tandem mass tag proteomic assay; type: functional, cell-based
[18] = Volume of distribution at steady state in CD-1 mouse at 3 mg/kg, iv measured up to 24 hrs; type: ADME, organism-based; conditions: in vivo, read-out: Vdss
[19] = Oral bioavailability in CD-1 mouse at 30 mg/kg measured up to 24 hrs; type: ADME, organism-based; conditions: in vivo
[20] = test system: KOPTK1; assay: Antiproliferative activity against human KOPT-K1 cells assessed as effect on cell viability measured for 72 hrs by celltiter glo assay; type: functional; conditions: read-out: LC50 (the source's name)
[21] = test system: KOPTK1; assay: Downregulation of EPHB1 in human KOPT-K1 cells measured for 6 hrs by tandem mass tag proteomic assay; type: functional, cell-based
[22] = test system: Mus musculus; assay: In-vivo PROTAC activity at LCK/CRBN in NOD Cg-Prkdc scid Il2rg tmIWjl (NSG) mouse model assessed as reduction in LCK level in Bone marrow at 30 mg/kg, po measured for 6 hrs by Western blot analysis; type: functional; parameters: scale not given: the % may be the effect or the level left
[23] = biological target: T1, Protein cereblon/Tyrosine-protein kinase Lck; assay: PROTAC activity at HiBit-tagged LCK/CRBN in human KOPT-K1 cells assessed as induction of LCK degradation incubated for 6 hrs by Nano-Glo HiBiT assay; type: cell-based
Target sequence in this assay (P06239 whole entry): as the sequence (P06239 whole entry) above
Target sequence in this assay (Q96SW2 whole entry): as the sequence (Q96SW2 whole entry partner) above

[24] = test system: KOPTK1; assay: Downregulation of GSPT1 in human KOPT-K1 cells measured for 6 hrs by tandem mass tag proteomic assay; type: functional, cell-based
[25] = AUClast in CD-1 mouse at 30 mg/kg, po measured up to 24 hrs; type: ADME, organism-based; conditions: in vivo
[26] = Clearance in CD-1 mouse at 3 mg/kg, iv measured up to 24 hrs; type: ADME, organism-based; conditions: in vivo
[27] = test system: KOPTK1; assay: Downregulation of SIK2 in human KOPT-K1 cells measured for 6 hrs by tandem mass tag proteomic assay; type: functional, cell-based
[28] = test system: KOPTK1; assay: Downregulation of GAK in human KOPT-K1 cells measured for 6 hrs by tandem mass tag proteomic assay; type: functional, cell-based
[29] = test system: KOPTK1; assay: Downregulation of CISH in human KOPT-K1 cells measured for 6 hrs by tandem mass tag proteomic assay; type: functional, cell-based
[30] = Cmax in CD-1 mouse at 3 mg/kg, iv measured up to 24 hrs; type: ADME, organism-based; conditions: in vivo
[31] = test system: KOPTK1; assay: Downregulation of CSK in human KOPT-K1 cells measured for 6 hrs by tandem mass tag proteomic assay; type: functional, cell-based
[32] = Cmax in CD-1 mouse at 30 mg/kg, po measured up to 24 hrs; type: ADME, organism-based; conditions: in vivo
[33] = Half life in CD-1 mouse at 3 mg/kg, iv measured up to 24 hrs; type: ADME, organism-based; conditions: in vivo
[34] = test system: KOPTK1; assay: Downregulation of YES1 in human KOPT-K1 cells measured for 6 hrs by tandem mass tag proteomic assay; type: functional, cell-based
[35] = biological target: T1, Protein cereblon/Tyrosine-protein kinase Lck; assay: PROTAC activity at HiBit-tagged LCK/CRBN in human KOPT-K1 cells assessed as reduction in LCK level at 0.1 to 1000 nM incubated for 6 hrs immunoblotting analysis; type: cell-based; conditions: dose 0.1-1000 nM
Target sequence in this assay (P06239 2-509 limits assumed): as the sequence (P06239 2-509 limits assumed) above
Target sequence in this assay (Q96SW2 whole entry partner): as the sequence (Q96SW2 whole entry partner) above

[36] = test system: Mus musculus; assay: In-vivo PROTAC activity at LCK/CRBN in NOD Cg-Prkdc scid Il2rg tmIWjl (NSG) mouse model assessed as reduction in LCK level in Bone marrow at 30 mg/kg, po measured for 24 hrs by Western blot analysis; type: functional; parameters: scale not given: the % may be the effect or the level left
[37] = test system: KOPTK1; assay: Downregulation of IKZF1 in human KOPT-K1 cells measured for 6 hrs by tandem mass tag proteomic assay; type: functional, cell-based
[38] = Volume of distribution at steady state in CD-1 mouse at 30 mg/kg, po measured up to 24 hrs; type: ADME, organism-based; conditions: in vivo
[39] = Tmax in CD-1 mouse at 30 mg/kg, po measured up to 24 hrs; type: ADME, organism-based; conditions: in vivo
[40] = Clearance in CD-1 mouse at 3 mg/kg, iv measured up to 24 hrs by LC-MS/MS analysis; type: ADME, organism-based; conditions: in vivo
[41] = Oral bioavailability in CD-1 mouse at 10 mg/kg measured up to 24 hrs by LC-MS/MS analysis; type: ADME, organism-based; conditions: in vivo

SMILES: Cc1nc(Nc2ncc(C(=O)Nc3c(C)cccc3Cl)s2)cc(N2CCC(N(C)C3CCN(c4ccc(C5CCC(=O)NC5=O)cc4)CC3)CC2)n1 (stereo not drawn)
half-life [1]: 2.1 h
Papp A→B [2]: 1.93 ×10⁻⁶ cm/s
concentration at 4 h [3]: 207 ng/mL
Papp B→A [4]: 12.7 ×10⁻⁶ cm/s
efflux ratio [5]: 6.56
half-life [6]: 3.84 h
Emax [7]: < 60%

SMILES: Cc1nc(Nc2ncc(C(=O)Nc3c(C)cccc3Cl)s2)cc(N2CCN(Cc3ccc(C4CCC(=O)NC4=O)cc3)CC2)n1 (stereo not drawn)
half-life [1]: 1.23 h
solubility at 18 h [8]: 1.99 µM (≈ 1.28 µg/mL)
Emax [7]: < 60%

SMILES: Cc1nc(Nc2ncc(C(=O)Nc3c(C)cccc3Cl)s2)cc(N2CCC(CN3CCN(c4ccc(C5CCC(=O)NC5=O)cc4)CC3)CC2)n1 (stereo not drawn)
Activity [9]: Active
CL/F [10]: 24 mL/min/kg
Activity [11]: inactive
Activity [12]: Active
Emax [13]: 98%
DC50 [14]: 0.00121 µM
half-life [15]: 3.05 h
AUC(0-t) at 24 h [16]: 3560 ng·h/mL
Activity [17]: inactive
Vd [18]: 3.51 L/kg
bioavailability [19]: 58%
half-life [1]: 2 h
CC50 [20]: 0.0201 µM
Activity [21]: Active
Activity [22]: 10%
Papp A→B [2]: 0.302 ×10⁻⁶ cm/s
DC50 [23]: 0.0175 µM
Activity [24]: inactive
AUC(0-t) at 24 h [25]: 20700 ng·h/mL
concentration at 4 h [3]: 3290 ng/mL
clearance [26]: 14 mL/min/kg
Activity [27]: inactive
Activity [28]: inactive
Activity [29]: Active
Cmax [30]: 1450 ng/mL
Activity [31]: Active
Cmax [32]: 2240 ng/mL
Papp B→A [4]: 1.13 ×10⁻⁶ cm/s
efflux ratio [5]: 3.75
half-life [6]: 45.2 h
half-life [33]: 3.51 h
Activity [34]: inactive
Activity [35]: Active
Activity [36]: 5%
Activity [37]: inactive
Emax [7]: 77%
Vdss [38]: 6.34 L/kg
Tmax [39]: 1 h

SMILES: Cc1nc(Nc2ncc(C(=O)Nc3c(C)cccc3Cl)s2)cc(N2CCN(CCCN3CC4CC3CN4c3ccc(C4CCC(=O)NC4=O)cc3)CC2)n1 (stereo not drawn)
half-life [1]: 2.6 h
solubility at 18 h [8]: 14.5 µM (≈ 11.2 µg/mL)
Emax [7]: 83%

Next, values leading:

half-life [1]: 1.2 h
solubility at 18 h [8]: 1.5 µM (≈ 1.28 µg/mL)
Emax [7]: 86%
SMILES: Cc1nc(Nc2ncc(C(=O)Nc3c(C)cccc3Cl)s2)cc(N2CCN(CCCC(=O)N3CCC4(CC3)CCN(c3ccc(C5CCC(=O)NC5=O)cc3)CC4)CC2)n1 (stereo not drawn)

half-life [1]: 0.67 h
solubility at 18 h [8]: 0.65 µM (≈ 0.574 µg/mL)
Emax [7]: 84%
SMILES: Cc1nc(Nc2ncc(C(=O)Nc3c(C)cccc3Cl)s2)cc(N2CCN(CCCC(=O)N3CCC(CN4CCN(c5ccc(C6CCC(=O)NC6=O)cc5)CC4)CC3)CC2)n1 (stereo not drawn)

half-life [1]: 3.5 h
Emax [7]: < 60%
SMILES: Cc1nc(Nc2ncc(C(=O)Nc3c(C)cccc3Cl)s2)cc(N2CCN(CC3CCN(c4ccc(C5CCC(=O)NC5=O)cc4)CC3)CC2)n1 (stereo not drawn)

half-life [1]: 4 h
DC50 [23]: 0.053 µM
solubility at 18 h [8]: 1.87 µM (≈ 1.39 µg/mL)
Emax [7]: 62%
SMILES: Cc1nc(Nc2ncc(C(=O)Nc3c(C)cccc3Cl)s2)cc(N2CCN(CCN3CCN(c4ccc(C5CCC(=O)NC5=O)cc4)CC3)CC2)n1 (stereo not drawn)

clearance [40]: 169 mL/min/kg
half-life [1]: 10 h
Papp A→B [2]: 1.15 ×10⁻⁶ cm/s
DC50 [23]: 0.00448 µM
bioavailability [41]: 3.1%
Papp B→A [4]: 13.3 ×10⁻⁶ cm/s
efflux ratio [5]: 11.6
half-life [6]: 30.1 h
solubility at 18 h [8]: 7.54 µM (≈ 5.82 µg/mL)
Emax [7]: 84%
SMILES: Cc1nc(Nc2ncc(C(=O)Nc3c(C)cccc3Cl)s2)cc(N2CCN(CCCN3CCN(Cc4ccc(C5CCC(=O)NC5=O)cc4)CC3)CC2)n1 (stereo not drawn)
